Patent publication US20250388568A1, “NLRP3 INHIBITORS” (Kodiak Sciences Inc., priority 2022, published 2025)

System: IL-1β release in U937 cells after NLRP3 activation
Experiment: IC50 determination of IL-1β release inhibition in U937 cells
Type: cell-based
Settings: Homo sapiens, U-937; PMA-differentiated U937 cells, LPS priming 5 h, nigericin; average of at least three experiments; read-out: IL-1β IC50 (nM) U937 cells
Description: Example 79: IC50 Determination of IL-1β Release Inhibition in U937 Cells The compounds of the present disclosure were tested for their ability to inhibit the IL-1β release in the U937 cells after NLRP3 activation. U937 cells (U-97 CRL 1593.2) were thawed following ATCC's initial culture procedure. […] The growth medium was composed of RPMI1640 medium (Quality Biological 112-040-101), 10% serum (Corning 35-076-CV), Pen/Strep (GIBCO 15140-122), 10 mM Hepes (Quality Biological 118-089-721), 2 mM Glutamax (GIBCO 35050-061), and 100 μg/mL normocin (Invivogen ant-nr)-Differentiating media was prepared by adding Phorbol 12-myristate 13-acetate (PMA) (AdipoGen AG-CN2-0010-M005) to growth medium. A cell suspension was prepared with differentiating media at 500k cells/ml. With an electronic pipet, 200 ul of cell suspension was added to each well (96w white plate Corning 3903) leaving columns 1 and 2 empty. Plates were left in the biosafety cabinet for 15 min and then placed in incubator for 90 hours. Priming media was prepared with assay medium consisting of RPMI 1640 medium, 10 mM Hepes, 2 mM Glutamax and Pen/Strep plus 1 μg/mL LPS (Invivogen tlrl-3pelps). Differentiating media was manually removed and 80 ul of priming media was added to each well with an electronic pipet. The plates were placed in the incubator for 5 hours. […] DMSO). An hour prior to the end of LPS incubation, a separate 96 deep well plate, Plate B, was prepared with 400 μL of assay media per well, then […] of the stock DMSO solution from Plate A was added to each corresponding well. Plate B was covered to avoid media evaporation. In a 50 mL tube, a solution of nigericin in assay media at 50 uM/mL concentration was prepared. To a new 96 deep well plate, Plate C, 200 μL of this nigericin containing media was dispensed to each well and 1 μL of the test compounds from Plate B to each corresponding well was added. Plate C was covered to avoid media evaporation. After 5 hours of priming, all the media from the LPS treated U937 cells was removed manually. To this plate of primed cells, 80 μL/well test compounds from Plate B (assay media+compound) was added in duplicate columns (5 compounds tested per plate). The plate was placed in an incubator for 30 min. […] The plate was placed back in the incubator for 1 hour. At the end of 1 hour, the supernatant from this test plate was transferred to a new 96 well V bottom polypropylene plate which was frozen immediately at -80° C. The plate was transferred to -20° C. the next day and awaited further determination of cytokine IL-Ip level. The release of IL-1β into the cell media was determined by MSD® Multi-Spot Assay System (V-Plex, IL-1B kit, […]-4). Following the manufacture's protocol and using the Alternate Protocol 3, Dilute-In-Plate protocol specifically, the level of IL-IP in the above collected supernatant plate was measured as electrochemiluminescent signals. Using MSD DISCOVERY WORKBENCH® analysis software, the signals were converted to the concentration of IL-1β in each well. The IC50 values of the compounds were calculated using the Graph Pad Prism software based on the IL-1β concentration determined. The detection range of IL-1β using MSD kit was approximately […] (based on various lots of standards purchased from MSD).

SMILES	IC50 [nM]
CN(C(=O)c1coc(S(=N)(=O)NC(=O)Nc2c3c(cc4c2CCC4)CCC3)c1)C1CNC1 (centres unmarked) [Example 17, N-(azetidin-3-yl)-5-(N-((1,2,3,5,6,7-hexahydro-s-indacen-4-yl)carbamoyl)sulfamidimidoyl)-N-methylfuran-3-carboxamide]	50 to 500
Cc1oc(S(=O)(=O)NC(=O)Nc2c3c(c(F)c4c2CCC4)CCC3)cc1CN(C)CC1(CO)CCC1 [Example 47, N-((8-fluoro-1,2,3,5,6,7-hexahydro-s-indacen-4-yl)carbamoyl)-4-((((1-(hydroxymethyl)cyclobutyl)methyl)(methyl)amino)methyl)-5-methylfuran-2-sulfonamide]	5 to 50
N=S(=O)(NC(=O)Nc1c2c(cc3c1CCC3)CCC2)c1cc(CO[C@H]2C[C@H](N)C2)co1 (some centres unmarked) [Example 18, 4-(((1r,3r)-3-aminocyclobutoxy)methyl)-N-((1,2,3,5,6,7-hexahydro-s-indacen-4-yl)carbamoyl)furan-2-sulfonimidamide]	5 to 50
CN(C(=O)c1coc(S(=N)(=O)NC(=O)Nc2c3c(cc4c2CCC4)CCC3)c1)[C@H]1C[C@H](O)C1 (some centres unmarked) [Example 15, 5-(N-((1,2,3,5,6,7-hexahydro-s-indacen-4-yl)carbamoyl)sulfamidimidoyl)-N-((1r,3r)-3-hydroxycyclobutyl)-N-methylfuran-3-carboxamide]	5 to 50
O=C(Nc1c2c(cc3c1CCC3)CCC2)NS(=O)(=O)c1cc(CN2CC(O)C2)co1 [Example 32, N-((1,2,3,5,6,7-hexahydro-s-indacen-4-yl)carbamoyl)-4-((3-hydroxyazetidin-1-yl)methyl)furan-2-sulfonamide]	50 to 500
N=S(=O)(NC(=O)Nc1c2c(cc3c1CCC3)CCC2)c1cc(CN2CC3(CC(O)C3)C2)co1 (centres unmarked) [Example 2, N-((1,2,3,5,6,7-hexahydro-s-indacen-4-yl)carbamoyl)-4-((6-hydroxy-2-azaspiro[3.3]heptan-2-yl)methyl)furan-2-sulfonimidamide]	50 to 500
Cc1oc(S(=O)(=O)NC(=O)Nc2c3c(c(F)c4c2CCC4)CCC3)cc1CN1C[C@@H](F)[C@@H](O)C1 [Example 40, N-((8-fluoro-1,2,3,5,6,7-hexahydro-s-indacen-4-yl)carbamoyl)-4-(((3R,4S)-3-fluoro-4-hydroxypyrrolidin-1-yl)methyl)-5-methylfuran-2-sulfonamide]	5 to 50
Cc1oc(S(=O)(=O)NC(=O)Nc2c3c(c(F)c4c2CCC4)CCC3)cc1CN(C)CC1(CO)CCOCC1 [Example 46, N-((8-fluoro-1,2,3,5,6,7-hexahydro-s-indacen-4-yl)carbamoyl)-4-((((4-(hydroxymethyl)tetrahydro-2H-pyran-4-yl)methyl)(methyl)amino)methyl)-5-methylfuran-2-sulfonamide]	5 to 50
Cc1oc(S(=O)(=O)NC(=O)Nc2c3c(cc4c2CCC4)CCC3)cc1CN(C)CC1(CO)CCC1 [Example 34, N-((1,2,3,5,6,7-hexahydro-s-indacen-4-yl)carbamoyl)-4-((((1-(hydroxymethyl)cyclobutyl)methyl)(methyl)amino)methyl)-5-methylfuran-2-sulfonamide]	5 to 50
CN(C(=O)c1coc(S(=N)(=O)NC(=O)Nc2c3c(cc4c2CCC4)CCC3)c1)[C@H]1C[C@H](N)C1 (some centres unmarked) [Example 16]	> 500

Results, then the compound that gave them:

IC50 [nM]	SMILES
< 5	Cc1cc(S(=O)(=O)NC(=O)Nc2c3c(c(F)c4c2CCC4)CCC3)oc1CN1C[C@@H](O)[C@H](F)C1 [Example 54, N-((8-fluoro-1,2,3,5,6,7-hexahydro-s-indacen-4-yl)carbamoyl)-5-(((3R,4R)-3-fluoro-4-hydroxypyrrolidin-1-yl)methyl)-4-methylfuran-2-sulfonamide]
5 to 50	Cc1cc(S(=O)(=O)NC(=O)Nc2c3c(c(F)c4c2CCC4)CCC3)oc1CN1C[C@H](O)[C@@H](F)C1 [Example 56, N-((8-fluoro-1,2,3,5,6,7-hexahydro-s-indacen-4-yl)carbamoyl)-5-(((3S,4S)-3-fluoro-4-hydroxypyrrolidin-1-yl)methyl)-4-methylfuran-2-sulfonamide]
5 to 50	Cc1cc(S(=O)(=O)NC(=O)Nc2c3c(c(F)c4c2CCC4)CCC3)oc1CN1C[C@@H](O)[C@@H](F)C1 [Example 53, N-((8-fluoro-1,2,3,5,6,7-hexahydro-s-indacen-4-yl)carbamoyl)-5-(((38,4R)-3-fluoro-4-hydroxypyrrolidin-1-yl)methyl)-4-methylfuran-2-sulfonamide]
50 to 500	CN(Cc1cc(S(=O)(=O)NC(=O)Nc2c3c(c(F)c4c2CCC4)CCC3)nn1C)CC1(CO)CCOCC1 [Example 64, N-((8-fluoro-1,2,3,5,6,7-hexahydro-S-indacen-4-yl)carbamoyl)-5-((((4-(hydroxymethyl)tetrahydro-2H-pyran-4-yl)methyl)(methyl)amino)methyl)-1-methyl-1H-pyrazole-3-sulfonamide]
5 to 50	Cc1cc(S(=O)(=O)NC(=O)Nc2c3c(c(F)c4c2CCC4)CCC3)oc1CN1C[C@@H](F)[C@@H](O)C1 [Example 55, N-((8-fluoro-1,2,3,5,6,7-hexahydro-s-indacen-4-yl)carbamoyl)-5-(((3R,4S)-3-fluoro-4-hydroxypyrrolidin-1-yl)methyl)-4-methylfuran-2-sulfonamide]
5 to 50	CC(C)n1nc(S(=O)(=O)NC(=O)Nc2c3c(c(F)c4c2CCC4)CCC3)cc1CN1CC[C@H](O)C1 [Example 67, (S)—N-((8-fluoro-1,2,3,5,6,7-hexahydro-s-indacen-4-yl)carbamoyl)-5-((3-hydroxypyrrolidin-1-yl)methyl)-1-isopropyl-1H-pyrazole-3-sulfonamide]
5 to 50	CN(Cc1cc(S(=O)(=O)NC(=O)Nc2c3c(c(Cl)c4c2CCC4)CCC3)nn1C)CC1(O)CCC1 [Example 68, N-((8-chloro-1,2,3,5,6,7-hexahydro-s-indacen-4-yl)carbamoyl)-5-((((1-hydroxycyclobutyl)methyl)(methyl)amino)methyl)-1-methyl-1H-pyrazole-3-sulfonamide]
50 to 500	CC(C)n1nc(S(=N)(=O)NC(=O)Nc2c3c(cc4c2CCC4)CCC3)cc1CN (centres unmarked) [Example 77, 5-(aminomethyl)-N-((1,2,3,5,6,7-hexahydro-s-indacen-4-yl)carbamoyl)-1-isopropyl-1H-pyrazole-3-sulfonimidamide]
5 to 50	CC(C)(O)c1cc(S(=O)(=O)NC(=O)Nc2c3c(cc4c2CCC4)CCC3)oc1CN1CCNCC1 [Example 70, N-((1,2,3,5,6,7-hexahydro-s-indacen-4-yl)carbamoyl)-4-(2-hydroxypropan-2-yl)-5-(piperazin-1-ylmethyl)furan-2-sulfonamide]
5 to 50	CN(Cc1cc(S(=O)(=O)NC(=O)Nc2c3c(c(F)c4c2CCC4)CCC3)nn1C)CC1(CO)CCC1 [Example 65, N-((8-fluoro-1,2,3,5,6,7-hexahydro-s-indacen-4-yl)carbamoyl)-5-((((1-(hydroxymethyl)cyclobutyl)methyl)(methyl)amino)methyl)-1-methyl-1H-pyrazole-3-sulfonamide]
5 to 50	Cc1oc(S(=O)(=O)NC(=O)Nc2c3c(c(Cl)c4c2CCC4)CCC3)cc1CN1CC[C@H](O)C1 [Example 49, (S)—N-((8-chloro-1,2,3,5,6,7-hexahydro-s-indacen-4-yl)carbamoyl)-4-((3-hydroxypyrrolidin-1-yl)methyl)-5-methylfuran-2-sulfonamide]
< 5	CC(C)n1nc(S(=O)(=O)NC(=O)Nc2c3c(c(F)c4c2CCC4)CCC3)cc1CN(C)CC1(O)CCC1 [Example 66, N-((8-fluoro-1,2,3,5,6,7-hexahydro-s-indacen-4-yl)carbamoyl)-5-((((1-hydroxycyclobutyl)methyl)(methyl)amino)methyl)-1-isopropyl-1H-pyrazole-3-sulfonamide]
5 to 50	Cc1cc(S(=O)(=O)NC(=O)Nc2c3c(c(F)c4c2CCC4)CCC3)oc1CN1CC[C@@H](O)C1 [Example 52, (R)-N-((8-fluoro-1,2,3,5,6,7-hexahydro-s-indacen-4-yl)carbamoyl)-5-((3-hydroxypyrrolidin-1-yl)methyl)-4-methylfuran-2-sulfonamide]
